# Patent US6770673B1, “Therapeutic uses of arglabin in combination with other chemotherapy agents” (priority 1997, dated 2004)
# Marks after values point to notes of the source that are not given here.
# What was measured:
# geranylgeranylation = assay: Protein prenylation in myeloma Pai cells, naphthol cleavage and HPLC; type: cell-based, mouse; settings: 60 μM, FIG. 8B
# Method: (§1) The cells were collected by centrifugation at 600×g for 10 minutes and then washed twice in PBS. Control cells were grown in the absence of drug. The cells were solubilized in lysis buffer (50 mM Tris, pH 7.4, 25 mM EDTA, 0.05% Tween, 0.01 M NaCl) for 30 minutes on ice. Lysates were made by homogenization for 5 minutes at 4° C. and precipitated by centrifugation at 12,000×g for 10 minutes. The supernatant was collected. Proteins were precipitated with trichloroacetic acid and then successively washed with ethanol and ethyl ether. A selective naphthol cleavage of the bond between isoprenoides and proteins was performed as described by Epstein, W. W et al., (1991) Proc. Natl. Acad. Sci. USA 88:9668-9670. In general, 5 mg of a potassium naphthoxide and naphthol 4:1 mixture was added to approximately 10 mg of precipitated protein. After addition of 50 μl of dimethylformamide, the tubes were gassed with argon, capped and heated to 100° C. for eight to 15 hours. Reaction products were extracted with hexane and analyzed by HPLC (Waters System) using a 0.4×15 cm reverse-phase Nova-Pac C18 column. The column was eluted with 20% water in acetonitrile at a flow of 1.0 ml/minute. Napthol cleavage products were detected at 360 nm (FIG. 8) with a full-scale deflection of 0.01 A unit. […]
# [1] = test system: farnesylation of proteins; assay: as above; type: cell-based, mouse; settings: 60 μM, FIG. 8B
# Method: as §1
# [2] = test system: Sarcoma-45 resistant to sarcolysin; assay: Inhibition of growth of resistant tumour strains; type: in vivo, rats; settings: dose 50 mg/kg
# K-562 cells = assay: Viability of transformed cells, trypan blue exclusion; type: cell-based, human; settings: 12 μg/ml, 18 hours
# Method: (§2) Mouse mastocytoma (P-815), myeloma (Z-P3x63Ag8.653 and Pai) and human erthyroleukemia (K-562) cell lines were used. Primary cultures of normal mouse hepatocytes were isolated from mouse liver using collagenase. Mouse splenocytes were isolated using a glass homogenizer. Marrow cells were obtained by washing the bone marrow. See, for example, Shears, S. B. and Kirk, C. J. (1984), Biochem. J. 219:375-382.
# (§3) Cells were cultured in RPMI-1640 medium supplemented with 10% fetal calf serum, 100 mM L-glutamine and 50 μg/ml gentamycin at 37° C. under 5% CO2. Cells were seeded into 24-well plates at a density of 50,000 cells/well and grown until near confluency, approximately 2 days, then transferred to 96-well plates at the same density. […] Viability of the cells was determined by trypan blue exclusion. […] Approximately 25% of K-562 and X-653 cells survived at a concentration of 12 μg/ml, and the same proportion of P-815 cells survived at a concentration of about 25 μg/ml.
# marrow cells = assay: Viability of primary cultures of normal cells, trypan blue exclusion; type: cell-based, mouse; settings: 18 hours
# Method: as §2, §3
# (§4) Viability was measured by trypan blue exclusion. […] At a concentration of 320 μg/ml, the number of viable splenocytes was reduced by 50% in comparison to the control. At concentrations of 640 μg/ml and 1280 μg/ml, 40% and 10%, respectively, of the splenocytes were still viable. At these same concentrations, approximately 50% and 25% of hepatocytes were still viable. Marrow cells were more sensitive to dimethylaminoarglabin hydrochloride. At a concentration of 160 μg/ml, only about 50% of the marrow cells were still viable. Increasing the concentration to 320 μg/ml reduced the viability to about 25%.
# hepatocytes = assay: as above; type: cell-based, mouse; settings: 18 hours
# Method: as §2, §3, §4
# splenocytes = assay: as above; type: cell-based, mouse; settings: 18 hours
# Method: as §2, §3, §4
# immune system [3] = assay: Immunological indices in August rats with Pliss lymphosarcoma; type: in vivo; settings: Increased; about 50 mg/kg IP daily for 10 days
# Description: Additional immunological data were obtained from an “August” line of rats, weighing 140-160 g, with and without Pliss lymphosarcoma. […] Results are summarized in Table V. Overall, lyophilized-dimethylaminoarglabin hydrochloride stimulated delayed type hypersensitivity, but reduced all other studied indices in intact rats. In rats with Pliss Lymphosarcoma, the immune system was stimulated, as all studied indices increased.
# immune system [4] = assay: Immunity of rats with initial and prospidin resistant tumors with metastases; type: in vivo; settings: sarcolysin, cisplatin
smiles,measurement,setting,value
CC1=CCC23OC2(C)CCC2C(CN(C)C)C(=O)OC2C13.Cl (stereo not shown) [Dimethylaminoarglabin hydrochloride],geranylgeranyl peak,geranylgeranylation,appeared as in the control
same,peak corresponding to the farnesylcysteine derivative,[1],does not appear on the chromatogram
same,"Inhibition of Tumour Strains Growth, % - Resistant Forms - Sarcoma-45 to sarcolysin",[2],90.1*** %
same,cells survived,K-562 cells,Approximately 25%
same,marrow cells still viable,marrow cells; 160 μg/ml,approximately 50%
same,marrow cells viability,marrow cells; 320 μg/ml,about 25%
same,hepatocytes still viable,hepatocytes; 640 μg/ml,approximately 50%
same,hepatocytes still viable,hepatocytes; 1280 μg/ml,about 25%
same,number of viable splenocytes reduced in comparison to the control,splenocytes; 320 μg/ml,50%
same,splenocytes still viable,splenocytes; 640 μg/ml,40%
same,splenocytes still viable,splenocytes; 1280 μg/ml,10%
same,"Delayed type hypersensitivity, Rats with Pliss Lymphosarcoma After Treatment",immune system [3],89.9-132.2%
same,"Hemagglutination (RHG), Rats with Pliss Lymphosarcoma After Treatment",immune system [3],82.2-142.6%
same,"Nitroblue tetrazolium (NBT), Rats with Pliss Lymphosarcoma After Treatment",immune system [3],79.2-175.4%
same,"Spontaneous-erythrocyte rosette forming (E-ROK), Rats with Pliss Lymphosarcoma After Treatment",immune system [3],94.8-162.5%
same,effect on immunodepression caused by cytostatics,immune system [4],softened the immunodepressive effect of cytostatics
